This assay addresses T1, human cloned CHRM3 receptor (M3_CHO cells) (Homo sapiens, UniProt P20309).
T1 construct: expressed in transfected cells; host or cells: CHO-K1
Put plainly: CHRM3 Ca++ Flux Assay (agonist mode, FDSS 7000EX). The class given is cell-based. Conditions: for M3 FDSS PA / Emax: Percent Activity measured to EC100 of Carbachol; for pEC50: agonist mode, geometric mean if tested more than once, read-out: M3 FDSS EC50; for Emax: read-out: M3 FDSS PA. The procedure, abridged: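 Agonist responses are measured as calcium mobilization in CHO-K1 cells expressing human M3 or M5, tested over an 11-point dose range in triplicate. Percent activity is normalised to carbachol at EC100.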

Molecules are shown by their SMILES. pEC50: −log10 of the molar value. Where only a bound is given, the exact number is not on record here.

T1 sequence (P20309 whole entry): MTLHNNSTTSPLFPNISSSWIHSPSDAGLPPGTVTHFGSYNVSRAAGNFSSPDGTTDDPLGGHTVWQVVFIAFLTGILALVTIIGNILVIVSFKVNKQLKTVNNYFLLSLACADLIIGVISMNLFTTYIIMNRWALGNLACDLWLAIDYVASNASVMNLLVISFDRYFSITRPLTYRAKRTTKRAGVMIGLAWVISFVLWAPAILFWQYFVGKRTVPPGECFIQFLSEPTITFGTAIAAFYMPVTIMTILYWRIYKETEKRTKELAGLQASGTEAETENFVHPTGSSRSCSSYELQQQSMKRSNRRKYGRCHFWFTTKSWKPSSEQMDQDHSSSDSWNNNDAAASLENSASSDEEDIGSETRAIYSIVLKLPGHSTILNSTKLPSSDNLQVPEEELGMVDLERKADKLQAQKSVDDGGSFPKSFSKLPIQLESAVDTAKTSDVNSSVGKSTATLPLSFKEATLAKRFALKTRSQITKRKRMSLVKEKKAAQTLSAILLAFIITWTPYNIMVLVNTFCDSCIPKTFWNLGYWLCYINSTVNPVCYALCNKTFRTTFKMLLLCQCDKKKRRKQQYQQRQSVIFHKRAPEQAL

`FC(F)(F)Oc1ccccc1C1CCN([C@@H]2CCC3(C2)CN(c2ncco2)C3)CC1` (single isomer, unassigned) [Example 10L, (R)-2-(6-(4-(2-(trifluoromethoxy)phenyl)piperidin-1-yl)-2-azaspiro[3.4]octan-2-yl)oxazole or (S)-2-(6-(4-(2-(trifluoromethoxy)phenyl)piperidin-1-yl)-2-azaspiro[3.4]octan-2-yl)oxazole]: the “M3 FDSS PA” value was 2% and the negative logarithm of the EC50 (pEC50) is 4.91.

For `COc1ccccc1C1CCN([C@H]2CCC3(C2)CN(c2ncco2)C3)CC1` (single isomer, unassigned) [Example 10I, S)-2-(6-(4-(2-methoxyphenyl)piperidin-1-yl)-2-azaspiro[3.4]octan-2-yl)oxazole or (R)-2-(6-(4-(2-methoxyphenyl)piperidin-1-yl)-2-azaspiro[3.4]octan-2-yl)oxazole], the “M3 FDSS PA” value came out at 0% and the pEC50 was less than 4.60.

For the molecule `Cc1coc(N2CC3(CC[C@@H](N4CCC(c5ccc(F)cc5OCC(C)(C)O)CC4)C3)C2)n1` [Example 3N, (R)-1-(5-fluoro-2-(1-(2-(4-methyloxazol-2-yl)-2-azaspiro[3.4]octan-6-yl)piperidin-4-yl)phenoxy)-2-methylpropan-2-ol], the Emax came out at 0% and the negative logarithm of the EC50 (pEC50) was less than 4.60.

`O=C(N1CC2(CC[C@@H](N3CCC(c4ccccc4OCC4CC4)CC3)C2)C1)C1(F)CC1` (single isomer, unassigned) [Example 7O, (R)-(6-(4-(2-(cyclopropylmethoxy)phenyl)piperidin-1-yl)-2-azaspiro[3.4]octan-2-yl)(1-fluorocyclopropyl)methanone or (R)-(6-(4-(2-(cyclopropylmethoxy)phenyl)piperidin-1-yl)-2-azaspiro[3.4]octan-2-yl)(1-fluorocyclopropyl)methanone]: the “M3 FDSS PA” value is reported as 0% and the negative logarithm of the EC50 (pEC50) is less than 4.60.

Consider `COc1ccccc1C1CCN([C@@H]2CCC3(C2)CN(c2cncc(C)n2)C3)CC1` [Example 5G, (R)-6-(4-(2-methoxyphenyl)piperidin-1-yl)-2-(6-methylpyrazin-2-yl)-2-azaspiro[3.4]octane], for which the Emax turned out to be 0% and the pEC50 is less than 4.60.

As to `O=C(N1CC2(CC[C@@H](N3CCC(c4ccccc4OC4CCOCC4)CC3)C2)C1)C1(F)CC1` (single isomer, unassigned) [Example 9F, (R)-(1-fluorocyclopropyl)(6-(4-(2-((tetrahydro-2H-pyran-4-yl)oxy)phenyl)piperidin-1-yl)-2-azaspiro[3.4]octan-2-yl)methanone or (S)-(1-fluorocyclopropyl)(6-(4-(2-((tetrahydro-2H-pyran-4-yl)oxy)phenyl)piperidin-1-yl)-2-azaspiro[3.4]octan-2-yl)methanone], the “M3 FDSS PA” value is given as 0% and the negative logarithm of the EC50 (pEC50) is less than 4.60.

Consider `COc1ccccc1C1CCN([C@@H]2CCC3(C2)CN(c2cc(Cl)nnc2Cl)C3)CC1` [Example 5R, (R)-2-(3,6-dichloropyridazin-4-yl)-6-(4-(2-methoxyphenyl)piperidin-1-yl)-2-azaspiro[3.4]octane], for which the Emax amounted to 0% and the pEC50 was less than 4.60.

With `Fc1ccc(OC2CC3(COC3)C2)c(C2CCN([C@@H]3CCC4(C3)CN(c3cncnc3)C4)CC2)c1` (single isomer, unassigned) [Example 10E, (R)-6-(4-(2-((2-oxaspiro[3.3]heptan-6-yl)oxy)-5-fluorophenyl)piperidin-1-yl)-2-(pyrimidin-5-yl)-2-azaspiro[3.4]octane or (S)-6-(4-(2-((2-oxaspiro[3.3]heptan-6-yl)oxy)-5-fluorophenyl)piperidin-1-yl)-2-(pyrimidin-5-yl)-2-azaspiro[3.4]octane], the “M3 FDSS PA” value came to 0% and the pEC50 is less than 4.60.

In the case of `CC(C)(O)CCOc1ccccc1C1CCN([C@@H]2CCC3(C2)CN(C(=O)C2(F)CC2)C3)CC1` (single isomer, unassigned) [Example 7BB, (R)-(1-fluorocyclopropyl)(6-(4-(2-(3-hydroxy-3-methylbutoxy)phenyl)piperidin-1-yl)-2-azaspiro[3.4]octan-2-yl)methanone or (S)-(1-fluorocyclopropyl)(6-(4-(2-(3-hydroxy-3-methylbutoxy)phenyl)piperidin-1-yl)-2-azaspiro[3.4]octan-2-yl)methanone], the “M3 FDSS PA” value worked out at 0% and the pEC50 is less than 4.60.

With `O=C(N1CC2(CC[C@@H](N3CCC(c4cc(F)ccc4OC4CCOCC4)CC3)C2)C1)C1(F)CC1` (single isomer, unassigned) [Example 9C, (R)-(6-(4-(5-fluoro-2-((tetrahydro-2H-pyran-4-yl)oxy)phenyl)piperidin-1-yl)-2-azaspiro[3.4]octan-2-yl)(1-fluorocyclopropyl)methanone or (S)-(6-(4-(5-fluoro-2-((tetrahydro-2H-pyran-4-yl)oxy)phenyl)piperidin-1-yl)-2-azaspiro[3.4]octan-2-yl)(1-fluorocyclopropyl)methanone], the “M3 FDSS PA” value is 0% and the pEC50 is less than 4.60.

Take `COc1ccc(Cl)cc1C1CCN([C@@H]2CCC3(C2)CN(c2ccnnc2)C3)CC1` [Example 5P, (R)-6-(4-(5-chloro-2-methoxyphenyl)piperidin-1-yl)-2-(pyridazin-4-yl)-2-azaspiro[3.4]octane]: the Emax is 0% and the pEC50 is less than 4.60.

`FC(F)(F)Oc1ccccc1C1CCN([C@@H]2CCC3(C2)CN(c2nncs2)C3)CC1` (single isomer, unassigned) [Example 10N, (R)-2-(6-(4-(2-(trifluoromethoxy)phenyl)piperidin-1-yl)-2-azaspiro[3.4]octan-2-yl)-1,3,4-thiadiazole or (S)-2-(6-(4-(2-(trifluoromethoxy)phenyl)piperidin-1-yl)-2-azaspiro[3.4]octan-2-yl)-1,3,4-thiadiazole]: the “M3 FDSS PA” value was 0% and the pEC50 was less than 4.60.

Regarding `COc1ccccc1C1CCN([C@@H]2CCC3(C2)CN(c2ncns2)C3)CC1` (single isomer, unassigned) [Example 10R, (R)-5-(6-(4-(2-methoxyphenyl)piperidin-1-yl)-2-azaspiro[3.4]octan-2-yl)-1,2,4-thiadiazole or (S)-5-(6-(4-(2-methoxyphenyl)piperidin-1-yl)-2-azaspiro[3.4]octan-2-yl)-1,2,4-thiadiazole], the “M3 FDSS PA” value was 0% and the pEC50 was less than 4.60.

Turning to `Cc1noc(C)c1COc1ccccc1C1CCN([C@@H]2CCC3(C2)CN(C(=O)C2(F)CC2)C3)CC1` (single isomer, unassigned) [Example 7U, (R)-(6-(4-(2-((3,5-dimethylisoxazol-4-yl)methoxy)phenyl)piperidin-1-yl)-2-azaspiro[3.4]octan-2-yl)(1-fluorocyclopropyl)methanone or (S)-(6-(4-(2-((3,5-dimethylisoxazol-4-yl)methoxy)phenyl)piperidin-1-yl)-2-azaspiro[3.4]octan-2-yl)(1-fluorocyclopropyl)methanone], the “M3 FDSS PA” value is recorded as 0% and the pEC50 was less than 4.60.

With `FC(F)Oc1ccccc1C1CCN([C@@H]2CCC3(C2)CN(c2nncs2)C3)CC1` (single isomer, unassigned) [Example 10O, (R)-2-(6-(4-(2-(difluoromethoxy)phenyl)piperidin-1-yl)-2-azaspiro[3.4]octan-2-yl)-1,3,4-thiadiazole or (S)-2-(6-(4-(2-(difluoromethoxy)phenyl)piperidin-1-yl)-2-azaspiro[3.4]octan-2-yl)-1,3,4-thiadiazole], the “M3 FDSS PA” value was 0% and the negative logarithm of the EC50 (pEC50) was less than 4.60.

Consider `CCOc1ccccc1C1CCN([C@@H]2CCC3(C2)CN(C(=O)C2(F)CC2)C3)CC1` (single isomer, unassigned) [Example 7S, (R)-(6-(4-(2-ethoxyphenyl)piperidin-1-yl)-2-azaspiro[3.4]octan-2-yl)(1-fluorocyclopropyl)methanone or (S)-(6-(4-(2-ethoxyphenyl)piperidin-1-yl)-2-azaspiro[3.4]octan-2-yl)(1-fluorocyclopropyl)methanone], for which the “M3 FDSS PA” value was determined as 0% and the pEC50 was less than 4.60.

In the case of `O=C(N1CC2(CC[C@@H](N3CCC(c4ccccc4OC4CC5(COC5)C4)CC3)C2)C1)C1(F)CC1` (single isomer, unassigned) [Example 11C, (R)-(6-(4-(2-((2-oxaspiro[3.3]heptan-6-yl)oxy)phenyl)piperidin-1-yl)-2-azaspiro[3.4]octan-2-yl)(1-fluorocyclopropyl)methanone or (S)-(6-(4-(2-((2-oxaspiro[3.3]heptan-6-yl)oxy)phenyl)piperidin-1-yl)-2-azaspiro[3.4]octan-2-yl)(1-fluorocyclopropyl)methanone], the “M3 FDSS PA” value is given as −1% and the pEC50 is less than 4.60.

For the molecule `Cc1ncc(COc2ccccc2C2CCN([C@@H]3CCC4(C3)CN(C(=O)C3(F)CC3)C4)CC2)o1` (single isomer, unassigned) [Example 7V, (R)-(1-fluorocyclopropyl)(6-(4-(2-((2-methyloxazol-5-yl)methoxy)phenyl)piperidin-1-yl)-2-azaspiro[3.4]octan-2-yl)methanone or (S)-(1-fluorocyclopropyl)(6-(4-(2-((2-methyloxazol-5-yl)methoxy)phenyl)piperidin-1-yl)-2-azaspiro[3.4]octan-2-yl)methanone], the “M3 FDSS PA” value is recorded as 0% and the negative logarithm of the EC50 (pEC50) is less than 4.60.

In the case of `Fc1ccc(C2CCOCC2)c(C2CCN([C@@H]3CCC4(C3)CN(c3cncnc3)C4)CC2)c1` (single isomer, unassigned) [Example 10C, (R)-6-(4-(5-fluoro-2-(tetrahydro-2H-pyran-4-yl)phenyl)piperidin-1-yl)-2-(pyrimidin-5-yl)-2-azaspiro[3.4]octane or (S)-6-(4-(5-fluoro-2-(tetrahydro-2H-pyran-4-yl)phenyl)piperidin-1-yl)-2-(pyrimidin-5-yl)-2-azaspiro[3.4]octane], the “M3 FDSS PA” value amounted to 0% and the pEC50 is less than 4.60.

The values above are taken from patent US12122761B2, “2-azaspiro[3.4]octane derivatives as M4 agonists” (NOVARTIS AG, priority 2019, dated 2024).
